SMILES strings stand for the structures.

T1 sequence (P27815 248-886 limits assumed): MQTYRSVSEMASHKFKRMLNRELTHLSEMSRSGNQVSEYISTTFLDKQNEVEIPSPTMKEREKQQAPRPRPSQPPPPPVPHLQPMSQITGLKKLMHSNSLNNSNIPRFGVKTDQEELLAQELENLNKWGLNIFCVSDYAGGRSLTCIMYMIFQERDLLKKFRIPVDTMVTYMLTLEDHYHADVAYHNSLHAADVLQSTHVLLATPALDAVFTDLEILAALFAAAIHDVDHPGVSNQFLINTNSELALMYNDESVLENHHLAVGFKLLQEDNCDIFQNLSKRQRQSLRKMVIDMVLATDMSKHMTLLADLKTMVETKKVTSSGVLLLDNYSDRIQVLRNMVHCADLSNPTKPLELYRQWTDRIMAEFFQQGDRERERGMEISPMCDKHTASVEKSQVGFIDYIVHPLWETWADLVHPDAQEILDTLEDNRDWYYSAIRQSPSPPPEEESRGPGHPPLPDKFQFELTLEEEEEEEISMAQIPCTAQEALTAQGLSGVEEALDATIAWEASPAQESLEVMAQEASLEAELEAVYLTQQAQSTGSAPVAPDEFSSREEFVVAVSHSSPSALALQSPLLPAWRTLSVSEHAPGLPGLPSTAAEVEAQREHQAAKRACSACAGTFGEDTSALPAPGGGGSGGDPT

The experiment concerns the target T1, human recombinant phosphodiesterase IVa (met-248) (Homo sapiens, UniProt P27815).
T1 construct: human recombinant phosphodiesterase IVa (met-248); made in house; host or cells: baculovirus/Sf-9
The experiment can be described thus: SPA based PDE activity assay. Format: biochemical. The conditions noted are these: 100 nM cAMP; purified GST fusion protein of human recombinant PDE IVa (met-248), baculovirus/Sf-9. The procedure: Compounds which inhibit the hydrolysis of cAMP to AMP by the type-IV cAMP-specific phosphodiesterases were screened in a 96-well plate format as follows:
In a 96 well-plate at 30° C. was added the test compound (dissolved in 2 μL DMSO), […] of substrate buffer containing [2,8-^3H] adenosine 3′,5′-cyclic phosphate (cAMP, 100 nM to 50 μM), 10 mM MgCl2, 1 mM EDTA, 50 mM Tris, pH 7.5. The reaction was initiated by the addition of […] of human recombinant PDE4 (the amount was controlled so that ˜10% product was formed in 10 min.). The reaction was stopped after 10 min. by the addition of 1 mg of PDE-SPA beads (Amersham Pharmacia Biotech, Inc., Piscataway, N.J.). The product AMP generated was quantified on a Wallac Microbeta® 96-well plate counter (EG&G Wallac Co., Gaithersburg, Md.). The signal in the absence of enzyme was defined as the background. 100% activity was defined as the signal detected in the presence of enzyme and DMSO with the background subtracted. Percentage of inhibition was calculated accordingly. IC50 value was approximated with a non-linear regression fit using the standard 4-parameter/multiple binding sites equation from a ten point titration.
In the case of `CC(C)(c1cc(-c2cccc(-c3sc(-c4cccc(Cl)c4)nc3-c3ccc(S(C)(=O)=O)cc3)c2)c2ncccc2c1)S(C)(=O)=O` [Example 1, 8-(3-{2-(3-chlorophenyl)-4-[4-(methylsulfonyl)phenyl]-1,3-thiazol-5-yl}phenyl)-6-[1-methyl-1-(methylsulfonyl)ethyl]quinoline], the IC50 came out at 0.3 nM.
The result for `CC(C)(c1cc(-c2cccc(-c3sc(-c4cccc(S(C)(=O)=O)c4)nc3-c3ccc(S(C)(=O)=O)cc3)c2)c2ncccc2c1)S(C)(=O)=O` [Example 41] reads 1 nM; that for `CC(C)(O)c1cccc(-c2nc(-c3ccc(S(C)(=O)=O)cc3)c(-c3cccc(-c4cc(C(C)(C)S(C)(=O)=O)cc5cccnc45)c3)s2)c1` [Example 69, 2-(3-{5-(3-{6-[1-methyl-1-(methylsulfonyl)ethyl]quinolin-8-yl}phenyl)-4-[4-(methylsulfonyl)phenyl]-1,3-thiazol-2-yl}phenyl)propan-2-ol], 0.6 nM.
The result for `CC(C)(O)c1nc(-c2cccc(-c3cc(C(C)(C)S(C)(=O)=O)cc4cccnc34)c2)c(-c2ccc(S(C)(=O)=O)cc2)s1` [Example 78, 2-{4-(3-{6-[1-methyl-1-(methylsulfonyl)ethyl]quinolin-8-yl}phenyl)-5-[4-(methylsulfonyl)phenyl]-1,3-thiazol-2-yl}propan-2-ol] reads 0.4 nM.
Turning to `CC(O)(c1ccc(Cl)cc1)c1nc(-c2cccc(-c3cc(C(C)(C)S(C)(=O)=O)cc4cccnc34)c2)c(-c2ccc(S(C)(=O)=O)cc2)s1` (centres unmarked) [Example 82, 1-(4-chlorophenyl)-1-{4-(3-{6-[1-methyl-1-(methylsulfonyl)ethyl]quinolin-8-yl}phenyl)-5-[4-(methylsulfonyl)phenyl]-1,3-thiazol-2-yl}ethanol], the IC50 turned out to be 3.1 nM.
The value for `CC(C)(O)c1cccc(-c2nc(-c3ccc(F)c(Cl)c3)c(-c3cccc(-c4cc(C(C)(C)S(C)(=O)=O)cc5cccnc45)c3)s2)c1` [Example 88, 2-{3-[4-(3-chloro-4-fluorophenyl)-5-(3-{6-[1-methyl-1-(methylsulfonyl)ethyl]quinolin-8-yl}phenyl)-1,3-thiazol-2-yl]phenyl}propan-2-ol] was 1.6 nM; that for `CC(C)(O)c1nc(-c2cccc(-c3cc(C(C)(C)S(C)(=O)=O)cc4cccnc34)c2)c(-c2ccc(Cl)cc2)s1` [Example 94, 2-[5-(4-chlorophenyl)-4-(3-{6-[1-methyl-1-(methylsulfonyl)ethyl]quinolin-8-yl}phenyl)-1,3-thiazol-2-yl]propan-2-ol] was 4.3 nM; that for `Cc1noc(-c2cc(-c3cccc(-c4cc(C(C)(C)S(C)(=O)=O)cc5cccnc45)c3)c[n+]([O-])c2)n1` [Example 100, 6-[1-methyl-1-(methylsulfonyl)ethyl]-8-{3-[5-(3-methyl-1,2,4-oxadiazol-5-yl)-1-oxidopyridin-3-yl]phenyl}quinoline] was 4.1 nM.
With `Cn1nnc(-c2cc(-c3cccc(-c4cc(C(C)(C)S(C)(=O)=O)cc5cccnc45)c3)c[n+]([O-])c2)n1` [Example 115, 6-[1-methyl-1-(methylsulfonyl)ethyl]-8-{3-[5-(2-methyl-2H-tetraazol-5-yl)-1-oxidopyridin-3-yl]phenyl}quinoline], the IC50 was determined as 2.2 nM.
The result for `CC(C)(O)c1ccc(-c2nc(-c3ccc(S(C)(=O)=O)cc3)c(-c3cccc(-c4cc(C(C)(C)S(C)(=O)=O)cc5cccnc45)c3)s2)cc1` [Example 157, 2-(4-{5-(3-{6-[1-methyl-1-(methylsulfonyl)ethyl]quinolin-8-yl}phenyl)-4-[4-(methylsulfonyl)phenyl]-1,3-thiazol-2-yl}phenyl)propan-2-ol] reads 1.7 nM; that for `CC(C)(O)c1nc(-c2ccc(S(C)(=O)=O)cc2)c(-c2cccc(-c3cc(C(=O)NC4CC4)cc4cccnc34)c2)s1` [Example 167, N-cyclopropyl-8-(3-{2-(1-hydroxy-1-methylethyl)-4-[4-(methylsulfonyl)phenyl]-1,3-thiazol-5-yl}phenyl)quinoline-6-carboxamide], 0.4 nM.

The values are drawn from patent US7482456B2, “8-(3-Biaryl)phenylquinoline phosphodiesterase-4 inhibitors” (Merck Frosst Canada, priority 2003, dated 2009).
